HELM strings list units from the 5' end as sugar, base in round brackets, then linkage (d deoxyribose, r ribose, m 2'-O-methyl, p phosphodiester). Strings are as the collection lists them; they lack the last nucleoside at the 3' end of the tested compound. [moe] = 2'-O-(2-methoxyethyl) (MOE); [sp] = phosphorothioate linkage; [m5C] = 5-methylcytosine
Biological target: UBE3A-ATS
Test: mouse, dose not given
Details: ASO

Substance	3 h FOB score [score 0-7]
RNA1{[moe]([m5C])[sp].[moe](A)p.[moe](T)p.[moe](A)p.[moe]([m5C])[sp].d([m5C])[sp].d([m5C])[sp].d(A)[sp].d(G)[sp].d(G)[sp].d(G)[sp].d(T)[sp].d(A)[sp].[moe](G)p.[moe](G)p.[moe](A)[sp].[moe](T)}$$$$ (last 3' nucleoside missing)	1
RNA1{[moe]([m5C])[sp].[moe](A)p.[moe](T)p.[moe](A)p.[moe]([m5C])p.[moe]([m5C])[sp].d([m5C])[sp].d(A)[sp].d(G)[sp].d(G)[sp].d(G)[sp].d(T)[sp].d(A)[sp].d(G)[sp].[moe](G)p.[moe](A)[sp].[moe](T)}$$$$ (last 3' nucleoside missing)	2
RNA1{[moe]([m5C])[sp].[moe](A)p.[moe](T)p.[moe](G)p.[moe](T)p.d(G)[sp].d(G)[sp].d(G)[sp].d([m5C])[sp].d([m5C])[sp].d(T)[sp].d([m5C])[sp].d(T)[sp].d(A)[sp].d(T)[sp].[moe](T)p.[moe](A)p.[moe](A)[sp].[moe](G)}$$$$ (last 3' nucleoside missing)	4
RNA1{[moe]([m5C])[sp].[moe](A)p.[moe](T)p.[moe](T)p.[moe](A)p.d(T)[sp].d(T)[sp].d([m5C])[sp].d(A)[sp].d(A)[sp].d(T)[sp].d(T)[sp].d(A)[sp].d(A)[sp].d(G)[sp].[moe](G)p.[moe](G)p.[moe](T)[sp].[moe](G)}$$$$ (last 3' nucleoside missing)	4
RNA1{[moe]([m5C])[sp].[moe](A)p.[moe](T)p.[moe](T)p.[moe](A)p.d(T)[sp].d(T)[sp].d([m5C])[sp].d(T)[sp].d([m5C])[sp].d(T)[sp].d(A)[sp].d(G)[sp].d(T)[sp].d(G)[sp].[moe]([m5C])p.[moe]([m5C])p.[moe](T)[sp].[moe](A)}$$$$ (last 3' nucleoside missing)	4
RNA1{[moe]([m5C])[sp].[moe](A)p.[moe](T)p.[moe](T)p.[moe](G)p.d(G)[sp].d([m5C])[sp].d(T)[sp].d(T)[sp].d([m5C])[sp].d(A)[sp].d(T)[sp].d(A)[sp].d(T)[sp].d(T)[sp].[moe](T)p.[moe]([m5C])p.[moe](T)[sp].[moe]([m5C])}$$$$ (last 3' nucleoside missing)	0
RNA1{[moe]([m5C])[sp].[moe](A)p.[moe](T)p.[moe]([m5C])p.[moe](A)p.d(T)[sp].d(G)[sp].d(A)[sp].d(T)[sp].d([m5C])[sp].d(T)[sp].d(T)[sp].d(G)[sp].d(G)[sp].d(T)[sp].[moe](A)p.[moe](A)p.[moe](G)[sp].[moe](G)}$$$$ (last 3' nucleoside missing)	3
RNA1{[moe]([m5C])[sp].[moe](A)p.[moe](T)p.[moe]([m5C])p.[moe](T)p.d([m5C])[sp].d(G)[sp].d(G)[sp].d(G)[sp].d(T)[sp].d(A)[sp].d(T)[sp].d(A)[sp].d(T)[sp].d(A)[sp].[moe](A)p.[moe](A)p.[moe](T)[sp].[moe](T)}$$$$ (last 3' nucleoside missing)	2
RNA1{[moe]([m5C])[sp].[moe](A)p.[moe]([m5C])p.[moe](A)p.[moe](T)p.d(T)[sp].d(A)[sp].d([m5C])[sp].d([m5C])[sp].d([m5C])[sp].d(A)[sp].d(T)[sp].d([m5C])[sp].d([m5C])[sp].d(G)[sp].[moe](T)p.[moe](T)p.[moe]([m5C])[sp].[moe](T)}$$$$ (last 3' nucleoside missing)	0
RNA1{[moe]([m5C])[sp].[moe](A)p.[moe]([m5C])p.[moe](T)p.[moe](G)p.d(A)[sp].d(G)[sp].d(T)[sp].d(T)[sp].d(T)[sp].d(T)[sp].d(T)[sp].d(G)[sp].d(T)[sp].d(A)[sp].[moe](G)p.[moe](T)p.[moe](T)[sp].[moe]([m5C])}$$$$ (last 3' nucleoside missing)	4
RNA1{[moe]([m5C])[sp].[moe](A)p.[moe]([m5C])p.[moe](T)p.[moe]([m5C])p.d(A)[sp].d(T)[sp].d(T)[sp].d(T)[sp].d(T)[sp].d(G)[sp].d(T)[sp].d(T)[sp].d([m5C])[sp].d(A)[sp].[moe](G)p.[moe]([m5C])p.[moe](T)[sp].[moe](T)}$$$$ (last 3' nucleoside missing)	3
RNA1{[moe]([m5C])[sp].[moe](A)p.[moe]([m5C])p.[moe](T)p.[moe]([m5C])p.d(T)[sp].d(A)[sp].d(T)[sp].d(A)[sp].d(G)[sp].d(G)[sp].d(T)[sp].d(T)[sp].d([m5C])[sp].d(A)[sp].[moe](A)p.[moe](G)p.[moe]([m5C])[sp].[moe](A)}$$$$ (last 3' nucleoside missing)	4
RNA1{[moe]([m5C])[sp].[moe](A)p.[moe]([m5C])p.[moe]([m5C])p.[moe](T)p.d(A)[sp].d(G)[sp].d(G)[sp].d([m5C])[sp].d(T)[sp].d(G)[sp].d(G)[sp].d(G)[sp].d([m5C])[sp].d([m5C])[sp].[moe](T)p.[moe]([m5C])p.[moe](A)[sp].[moe](G)}$$$$ (last 3' nucleoside missing)	3.5
RNA1{[moe]([m5C])[sp].[moe](G)p.[moe](G)p.[moe](A)p.[moe]([m5C])p.d(A)[sp].d(G)[sp].d(T)[sp].d(G)[sp].d(T)[sp].d(T)[sp].d(G)[sp].d([m5C])[sp].d(T)[sp].d(G)[sp].[moe](T)p.[moe](T)p.[moe](A)[sp].[moe](G)}$$$$ (last 3' nucleoside missing)	6
RNA1{[moe]([m5C])[sp].[moe](G)p.[moe](G)p.[moe](G)p.[moe]([m5C])p.d(T)[sp].d(A)[sp].d(T)[sp].d(G)[sp].d(T)[sp].d(G)[sp].d(A)[sp].d(G)[sp].d(A)[sp].d(T)[sp].[moe](A)p.[moe](A)p.[moe](T)[sp].[moe](T)}$$$$ (last 3' nucleoside missing)	4
RNA1{[moe]([m5C])[sp].[moe](G)p.[moe](T)p.[moe](A)p.[moe](T)p.d(T)[sp].d(G)[sp].d(G)[sp].d(A)[sp].d([m5C])[sp].d([m5C])[sp].d(T)[sp].d(T)[sp].d(T)[sp].d([m5C])[sp].[moe](A)p.[moe](A)p.[moe](T)[sp].[moe](G)}$$$$ (last 3' nucleoside missing)	3.5
RNA1{[moe]([m5C])[sp].[moe](G)p.[moe](T)p.[moe](G)[sp].d(A)[sp].d(G)[sp].d([m5C])[sp].d(T)[sp].d(A)[sp].d(T)[sp].d([m5C])[sp].d(T)[sp].[moe](G)p.[moe](T)p.[moe](A)p.[moe]([m5C])[sp].[moe](A)}$$$$ (last 3' nucleoside missing)	1
RNA1{[moe]([m5C])[sp].[moe](G)p.[moe](T)p.[moe](G)p.[moe](A)[sp].d(G)[sp].d([m5C])[sp].d(T)[sp].d(A)[sp].d(T)[sp].d([m5C])[sp].d(T)[sp].d(G)[sp].[moe](T)p.[moe](A)p.[moe]([m5C])[sp].[moe](A)}$$$$ (last 3' nucleoside missing)	1.3
RNA1{[moe]([m5C])[sp].[moe](G)p.[moe](T)p.[moe](G)p.[moe](A)p.[moe](G)[sp].d([m5C])[sp].d(T)[sp].d(A)[sp].d(T)[sp].d([m5C])[sp].d(T)[sp].d(G)[sp].d(T)[sp].[moe](A)p.[moe]([m5C])[sp].[moe](A)}$$$$ (last 3' nucleoside missing)	2

— the OligoGym collection
